Test results as given in paper PMC12362796, “Bilirubin Targeting WNK1 to Alleviate NLRP3‐Mediated Neuroinflammation” (Advanced Science, 2025).

Experiments:
[1] = biological target: T1, WNK1 (1–190) (Homo sapiens, UniProt Q9H4A3); assay: MST, EGFP-tagged WNK1 truncation 1–190; type: binding; conditions: WNK1 1–190 (non-kinase segment), 15 min, HEK293T lysates
T1 construct: different lengths of WNK1 truncations (1–491, 1–190, 191–491, 491–2382); expressed in transfected cells; host or cells: HEK293T
T1 sequence (Q9H4A3 1-190): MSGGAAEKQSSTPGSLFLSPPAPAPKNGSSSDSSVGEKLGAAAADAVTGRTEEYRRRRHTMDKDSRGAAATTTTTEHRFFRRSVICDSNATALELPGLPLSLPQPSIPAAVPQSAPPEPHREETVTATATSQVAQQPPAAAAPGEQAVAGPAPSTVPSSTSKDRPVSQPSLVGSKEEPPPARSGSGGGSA
Text: To further validate these findings, we constructed GFP‐tagged fusion proteins with different lengths of WNK1 truncations (1–491, 1–190, 191–491, 491–2382) based on the WNK1 domains (Figure 3E) and analyzed their binding capacity with bilirubin using MST analysis.^[ [29] ^]
All WNK1 clones were derived from the original untagged hWNK1 cDNA (NM_018979), which was modified and subcloned into the pcDNA3.1, referred to as “full‐length WNK1” throughout this study. Truncated constructs, including 1–190aa, 191–491aa, 1–491aa, and 491–2382aa fragments, were generated by PCR using the full‐length template and subsequently ligated into linearized pcDNA3.1 vectors. WNK2 was obtained from Addgene Plasmid #24569, and WNK3 was obtained from Addgene Plasmid #81723. Both were subjected to base modifications and cloned into pcDNA3.1. The WNK4 clone was derived from hWNK4 cDNA (NM_032387.5), modified, and subcloned into the pCMV3‐C‐GFPSpark vector.
In HEK293T cells, proteins tagged with green fluorescent protein (GFP) were expressed. The cells were lysed using the M‐PER Mammalian Protein Extraction Reagent (cat. no. 78505, Thermo Scientific) supplemented with protease inhibitors. Lysates were centrifuged at 12000 × g for 15 min at 4 °C, and the supernatant containing proteins was diluted 10‐fold with 1x PBST. […]

[2] = test system: primary cultured hippocampal neurons; assay: MQAE intracellular chloride measurement in primary cultured hippocampal neurons; type: cell-based, mouse
Text: Therefore, we hypothesized that bilirubin activation of WNK1 kinase activity might affect intracellular chloride levels. […] This was detected using the sensitive molecular probe N‐(Ethoxycarbonylmethyl)‐6‐Methoxyquinolinium Bromide (MQAE), as indicated by a reduction in MQAE fluorescence intensity (Figure 4C,E).^[ [32] ^]
To ascertain whether bilirubin regulates chloride ions through WNK1, we generated Wnk1 gene knockout primary cultured neurons. We achieved neuron‐specific deletion of Wnk1 in hippocampal neurons by transducing primary neurons isolated from Wnk1^flox/flox embryonic mice with a lentivirus expressing hSyn‐Cre‐EGFP.^[ [33], [34] ^] […] Intracellular chloride concentration is crucial for modulating inhibitory synaptic transmission and, consequently, neuronal excitability.
Since bilirubin‐induced activation of WNK1 kinase activity increases [Cl⁻]i in neurons, we sought to elucidate the downstream effector proteins of WNK1 that are involved in this process. Neuronal [Cl⁻]i is primarily regulated by the Cl⁻‐K⁺ symporter KCC2, with additional modulation by factors such as the Na⁺‐K⁺‐Cl⁻ co‐transporter NKCC1, GABAA receptors, and glycine receptors (GlyR), all of which contribute to [Cl⁻]i homeostasis.^[ [31] ^] To investigate the mechanism underlying bilirubin‐induced changes in [Cl⁻]i, we selectively targeted these proteins using pharmacological inhibitors (VU0463271 for KCC2, bumetanide for NKCC1, bicuculline for GABAA receptors, and strychnine for GlyR) and activated KCC2 using CLP257.^[ [35], [36] ^] […] The bilirubin‐induced effect on [Cl⁻]i was not observed in primary astrocytes (Figure S15A,B, Supporting Information) or the HEK 293T cell line (Figure S15C, Supporting Information), both of which lacked KCC2 expression (Figure S16A,B, Supporting Information), further confirming that the effects of bilirubin and WNK1 on [Cl⁻]i elevation are dependent on KCC2.
Intracellular chloride concentration ([Cl⁻]i) was measured using the MQAE fluorescent dye (Life Technologies) following established protocols (Zhang, Lee et al. 2015). […]

- Kd [1]: 1830 nM
Compound: C=CC1=C(C)/C(=C/c2[nH]c(Cc3[nH]c(/C=C4\NC(=O)C(C)=C4C=C)c(C)c3CCC(=O)O)c(CCC(=O)O)c2C)NC1=O [bilirubin, Bilirubin]
- [Cl−]i levels after Wnk1 deletion ([2]; Wnk1 knockout primary neurons (hSyn-Cre lentivirus)): failed to increase
- intracellular chloride concentration ([2]; varying concentrations, 30 min, MQAE fluorescence): significant increase
